The values below come from ChEMBL document CHEMBL1134422, “Synthesis and bioactivities of novel 5,6-bis(4-methoxyphenyl)-2H-pyridazin-3-one derivatives: inhibitors of interleukin-1 beta (IL-1beta) production” (Bioorg Med Chem Lett, 2001).

System in one data set: not listed separately
Briefly: Pharmacokinetic property (t1/2) in rat. In kind it is ADME, organism-based. Particulars: in vivo.
Consider `COc1ccc(-c2cc(=O)n(C/C=C/c3ccc(Cl)cc3)nc2-c2ccc(OC)cc2)cc1`, for which the half-life was 4.9 h.

System in another data set: not listed separately
The data set can be described thus: Pharmacokinetic property (Tmax) in rat. The class given is ADME, organism-based. To be noted: in vivo.
For the compound `COc1ccc(-c2cc(=O)n(C/C=C/c3ccc(Cl)cc3)nc2-c2ccc(OC)cc2)cc1`, the Tmax came out at 7 h.

System in the next data set: not listed separately
The data set can be described thus: Pharmacokinetic property (Cmax) in rat. In kind it is ADME, organism-based. Particulars: in vivo.
`COc1ccc(-c2cc(=O)n(C/C=C/c3ccc(Cl)cc3)nc2-c2ccc(OC)cc2)cc1`: the Cmax worked out at 316 ng/mL.

For another data set, the species on record is Rattus norvegicus. The data set can be described thus: Pharmacokinetic property (AUC) in rat. Particulars: in vivo. The class given is ADME, organism-based.
`COc1ccc(-c2cc(=O)n(C/C=C/c3ccc(Cl)cc3)nc2-c2ccc(OC)cc2)cc1` displayed an AUC of 3900 ng·h/mL.

The next data set deals with HL-60. Briefly: Inhibitory concentration against interleukin-1 beta production in HL-60 cells stimulated with lipopolysaccharide (LPS). In kind it is functional, cell-based. Particulars: Homo sapiens.
The compound `COc1ccc(-c2cc(=O)n(C/C=C/c3ccc(F)cc3)nc2-c2ccc(OC)cc2)cc1` had an IC50 of 170 nM. Regarding `COc1ccc(-c2cc(=O)n(C3CC3)nc2-c2ccc(OC)cc2)cc1`, the midpoint of inhibition, the IC50, lay at 7980 nM. `COc1ccc(-c2cc(=O)n(Cc3c(Cl)cc(Cl)cc3Cl)nc2-c2ccc(OC)cc2)cc1` showed an IC50 of 9400 nM. `COc1ccc(-c2cc(=O)n(C(C)C)nc2-c2ccc(OC)cc2)cc1`: half-maximal inhibition (IC50) required 1320 nM. On to `COc1ccc(-c2cc(=O)n(Cc3ccncc3)nc2-c2ccc(OC)cc2)cc1`, for which it took 520 nM to reach half-maximal inhibition (IC50).

`COc1ccc(-c2cc(=O)n(C/C=C/c3ccc(Cl)cc3Cl)nc2-c2ccc(OC)cc2)cc1` registered an IC50 of 270 nM. As for `C=CCn1nc(-c2ccc(OC)cc2)c(-c2ccc(OC)cc2)cc1=O`, the IC50 is over 100000 nM. Same read-out and setting: to `COc1ccc(-c2cc(=O)n(Cc3ccc(F)cc3)nc2-c2ccc(OC)cc2)cc1` belongs 150 nM; to `COc1ccc(-c2cc(=O)n(Cc3ccccn3)nc2-c2ccc(OC)cc2)cc1`, 1480 nM.

On to `COc1ccc(-c2cc(=O)n(C/C=C/c3ccc(Cl)cc3)nc2-c2ccc(OC)cc2)cc1`, for which the IC50 amounted to 100 nM. `COc1ccc(-c2cc(=O)n(CC3CC3)nc2-c2ccc(OC)cc2)cc1`: the IC50 amounted to 1800 nM. For the compound `COc1ccc(-c2cc(=O)n(Cc3ccccc3)nc2-c2ccc(OC)cc2)cc1`, the IC50 turned out to be 260 nM. The compound `COc1ccc(-c2cc(O)nnc2-c2ccc(OC)cc2)cc1` displayed an IC50 of 31600 nM. As for `COc1ccc(-c2cc(=O)n(Cc3ccc(Cl)cc3)nc2-c2ccc(OC)cc2)cc1`, 530 nM corresponded to half-maximal inhibition (IC50). Take `COc1ccc(-c2cc(=O)n(Cc3ccc(Cl)c(Cl)c3)nc2-c2ccc(OC)cc2)cc1`: the IC50 was 210 nM. The compound `COc1ccc(-c2cc(=O)n(C/C=C/c3ccc(F)cc3F)nc2-c2ccc(OC)cc2)cc1` displayed a half-maximal inhibitory concentration (IC50) of 100 nM. Still for that read-out and setting: to `COc1ccc(-c2cc(=O)n(Cc3c(Cl)cccc3Cl)nc2-c2ccc(OC)cc2)cc1` belongs 3160 nM. The compound `COc1ccc(-c2cc(=O)n(CC3CCCC3)nc2-c2ccc(OC)cc2)cc1` returned an IC50 of 110 nM. Same read-out and setting: to `COc1ccc(-c2cc(=O)n(CC(C)C)nc2-c2ccc(OC)cc2)cc1` belongs over 100000 nM; to `COc1ccc(-c2cc(=O)n(Cc3ccc(F)cc3F)nc2-c2ccc(OC)cc2)cc1`, 180 nM; to `CCn1nc(-c2ccc(OC)cc2)c(-c2ccc(OC)cc2)cc1=O`, 610 nM. For the compound `COc1ccc(-c2cc(=O)n(C3CCCC3)nc2-c2ccc(OC)cc2)cc1`, the IC50 was 510 nM. With `COc1ccc(-c2cc(=O)n(C/C=C/c3ccccc3)nc2-c2ccc(OC)cc2)cc1`, the IC50 stood at 620 nM. For `COc1ccc(-c2cc(=O)n(C)nc2-c2ccc(OC)cc2)cc1`, the IC50 was determined as 1130 nM. In the case of `COc1ccc(-c2cc(=O)n(Cc3ccc(F)c(F)c3)nc2-c2ccc(OC)cc2)cc1`, the IC50 is 540 nM. The same measure, in the same setting: to `COc1ccc(-c2cc(=O)n(Cc3cccnc3)nc2-c2ccc(OC)cc2)cc1` belongs 430 nM; to `COc1ccc(-c2cc(=O)n(Cc3ccc(Cl)cc3Cl)nc2-c2ccc(OC)cc2)cc1`, 1100 nM.

Broadly, the half-life is the time needed for the level to fall by half in the phase considered. Broadly, the Tmax is the time from dosing to the highest level. For orientation: Cmax means the highest concentration seen after dosing. Broadly, the AUC is concentration integrated over time. As usually defined, the IC50 is the midpoint of a concentration-inhibition curve. Higher therefore signals weaker potency in that assay.
